In ChEMBL document CHEMBL3045592, “Studies of O,O-dimethyl α-(2,4-dichlorophenoxyacetoxy)ethylphosphonate (HW02) as a new herbicide. 1. Synthesis and herbicidal activity of HW02 and analogues as novel inhibitors of pyruvate dehydrogenase complex” (J Agric Food Chem, 2011):

How the values were obtained:
[1] = tested on: Chenopodium album; assay: Post-emergence herbicidal activity against Chenopodium album assessed as growth inhibition at 75 ai g/ha after 20 days by green house test; assay type: functional
[2] = tested on: Digitaria sanguinalis; assay: Pre-emergence herbicidal activity against Digitaria sanguinalis (hairy crabgrass) assessed as growth inhibition at 150 ai g/ha after 20 days by green house test; assay type: functional
[3] = tested on: Pisum sativum; assay: Post-emergence herbicidal activity against Pisum sativum Zhongwan-2 (pea) assessed as growth inhibition at 450 ai g/ha after 20 days by green house test; settings: Lathyrus oleraceus
[4] = tested on: Digitaria sanguinalis; assay: Post-emergence herbicidal activity against Digitaria sanguinalis (hairy crabgrass) assessed as growth inhibition at 450 ai g/ha after 20 days by green house test; assay type: functional
[5] = tested on: Abutilon theophrasti; assay: Post-emergence herbicidal activity against Abutilon theophrasti (velvetleaf) assessed as growth inhibition at 150 ai g/ha after 20 days by green house test; assay type: functional
[6] = tested on: Echinochloa crus-galli; assay: Post-emergence herbicidal activity against Echinochloa crus-galli (barnyard grass) assessed as growth inhibition at 450 ai g/ha after 20 days by green house test; assay type: functional
[7] = tested on: Setaria viridis; assay: Pre-emergence herbicidal activity against Setaria viridis (green foxtail) assessed as growth inhibition at 75 ai g/ha after 20 days by green house test; assay type: functional
[8] = tested on: Digitaria sanguinalis; assay: Pre-emergence herbicidal activity against Digitaria sanguinalis (hairy crabgrass) assessed as growth inhibition at 450 ai g/ha after 20 days by green house test; assay type: functional
[9] = tested on: Chenopodium album; assay: Post-emergence herbicidal activity against Chenopodium album assessed as growth inhibition at 150 ai g/ha after 20 days by green house test; assay type: functional
[10] = Toxicity against Oryza sativa (rice) assessed as growth inhibition at 450 ai g/ha post-emergent application measured after 20 days by green house crop selectivity test; assay type: organism-based; settings: in vivo, read-out: GI
[11] = tested on: Abutilon theophrasti; assay: Pre-emergence herbicidal activity against Abutilon theophrasti (velvetleaf) assessed as growth inhibition at 75 ai g/ha after 20 days by green house test; assay type: functional
[12] = tested on: Chenopodium album; assay: Pre-emergence herbicidal activity against Chenopodium album assessed as growth inhibition at 75 ai g/ha after 20 days by green house test; assay type: functional
[13] = tested on: Digitaria sanguinalis; assay: Post-emergence herbicidal activity against Digitaria sanguinalis (hairy crabgrass) assessed as growth inhibition at 150 ai g/ha after 20 days by green house test; assay type: functional
[14] = tested on: Abutilon theophrasti; assay: Pre-emergence herbicidal activity against Abutilon theophrasti (velvetleaf) assessed as growth inhibition at 150 ai g/ha after 20 days by green house test; assay type: functional
[15] = tested on: Abutilon theophrasti; assay: Pre-emergence herbicidal activity against Abutilon theophrasti (velvetleaf) assessed as growth inhibition at 450 ai g/ha after 20 days by green house test; assay type: functional
[16] = tested on: Amaranthus spinosus; assay: Post-emergence herbicidal activity against Amaranthus spinosus assessed as growth inhibition at 450 ai g/ha after 20 days by green house test; assay type: functional
[17] = tested on: Brassica juncea; assay: Post-emergence herbicidal activity against Brassica juncea assessed as growth inhibition at 450 ai g/ha after 20 days by green house test; assay type: functional
[18] = tested on: Amaranthus spinosus; assay: Pre-emergence herbicidal activity against Amaranthus spinosus assessed as growth inhibition at 75 ai g/ha after 20 days by green house test; assay type: functional
[19] = tested on: Abutilon theophrasti; assay: Post-emergence herbicidal activity against Abutilon theophrasti (velvetleaf) assessed as growth inhibition at 450 ai g/ha after 20 days by green house test; assay type: functional
[20] = tested on: Setaria viridis; assay: Pre-emergence herbicidal activity against Setaria viridis (green foxtail) assessed as growth inhibition at 450 ai g/ha after 20 days by green house test; assay type: functional
[21] = tested on: Chenopodium album; assay: Pre-emergence herbicidal activity against Chenopodium album assessed as growth inhibition at 150 ai g/ha after 20 days by green house test; assay type: functional
[22] = tested on: Chenopodium album; assay: Post-emergence herbicidal activity against Chenopodium album assessed as growth inhibition at 450 ai g/ha after 20 days by green house test; assay type: functional
[23] = tested on: Amaranthus spinosus; assay: Pre-emergence herbicidal activity against Amaranthus spinosus assessed as growth inhibition at 450 ai g/ha after 20 days by green house test; assay type: functional
[24] = tested on: Amaranthus spinosus; assay: Pre-emergence herbicidal activity against Amaranthus spinosus assessed as growth inhibition at 150 ai g/ha after 20 days by green house test; assay type: functional
[25] = target: Pyruvate dehydrogenase complex (Vigna radiata var. radiata); assay: Inhibition of PDHc in Vigna radiata var. radiata VC2778A shoot mitochondria assessed as decrease in rate of NADH formation using sodium pyruvate as substrate preincubated for 25 min before substrate addition measured after 1 min by spectrophotometric assay; assay type: protein-complex assay
[26] = tested on: Setaria viridis; assay: Post-emergence herbicidal activity against Setaria viridis (green foxtail) assessed as growth inhibition at 450 ai g/ha after 20 days by green house test; assay type: functional
[27] = tested on: Amaranthus spinosus; assay: Post-emergence herbicidal activity against Amaranthus spinosus assessed as growth inhibition at 75 ai g/ha after 20 days by green house test; assay type: functional
[28] = tested on: Cucumis sativus; assay: Herbicidal activity against Cucumis sativus Jin 4 (cucumber) assessed as inhibition of root growth after 3 days; assay type: functional, organism-based; settings: Jin 4, 72 h
[29] = tested on: Setaria viridis; assay: Pre-emergence herbicidal activity against Setaria viridis (green foxtail) assessed as growth inhibition at 150 ai g/ha after 20 days by green house test; assay type: functional
[30] = tested on: Digitaria sanguinalis; assay: Pre-emergence herbicidal activity against Digitaria sanguinalis (hairy crabgrass) assessed as growth inhibition at 75 ai g/ha after 20 days by green house test; assay type: functional
[31] = tested on: Amaranthus spinosus; assay: Post-emergence herbicidal activity against Amaranthus spinosus assessed as growth inhibition at 150 ai g/ha after 20 days by green house test; assay type: functional
[32] = tested on: Chenopodium album; assay: Pre-emergence herbicidal activity against Chenopodium album assessed as growth inhibition at 450 ai g/ha after 20 days by green house test; assay type: functional
[33] = tested on: Amaranthus retroflexus; assay: Post-emergence herbicidal activity against Amaranthus retroflexus assessed as growth inhibition at 450 ai g/ha after 20 days by green house test; assay type: functional
[34] = tested on: Setaria viridis; assay: Post-emergence herbicidal activity against Setaria viridis (green foxtail) assessed as growth inhibition at 150 ai g/ha after 20 days by green house test; assay type: functional
[35] = tested on: Digitaria sanguinalis; assay: Post-emergence herbicidal activity against Digitaria sanguinalis (hairy crabgrass) assessed as growth inhibition at 75 ai g/ha after 20 days by green house test; assay type: functional
[36] = tested on: Setaria viridis; assay: Post-emergence herbicidal activity against Setaria viridis (green foxtail) assessed as growth inhibition at 75 ai g/ha after 20 days by green house test; assay type: functional
[37] = tested on: Abutilon theophrasti; assay: Post-emergence herbicidal activity against Abutilon theophrasti (velvetleaf) assessed as growth inhibition at 75 ai g/ha after 20 days by green house test; assay type: functional
[38] = tested on: Digitaria sanguinalis; assay: Post-emergence herbicidal activity against Digitaria sanguinalis (hairy crabgrass) assessed as growth inhibition at 1500 ai g/ha after 20 days by green house test; assay type: functional
[39] = tested on: Medicago sativa; assay: Post-emergence herbicidal activity against Medicago sativa (alfalfa) assessed as growth inhibition at 1500 ai g/ha after 20 days by green house test; assay type: functional
[40] = tested on: Brassica rapa subsp. oleifera; assay: Pre-emergence herbicidal activity against Brassica rapa subsp. oleifera Si Yue Man assessed as growth inhibition at 1500 ai g/ha after 20 days by green house test; assay type: functional
[41] = tested on: Echinochloa crus-galli; assay: Pre-emergence herbicidal activity against Echinochloa crus-galli (barnyard grass) assessed as growth inhibition at 1500 ai g/ha after 20 days by green house test; assay type: functional
[42] = tested on: Digitaria sanguinalis; assay: Pre-emergence herbicidal activity against Digitaria sanguinalis (hairy crabgrass) assessed as growth inhibition at 1500 ai g/ha after 20 days by green house test; assay type: functional
[43] = tested on: Echinochloa crus-galli; assay: Post-emergence herbicidal activity against Echinochloa crus-galli (barnyard grass) assessed as growth inhibition at 1500 ai g/ha after 20 days by green house test; assay type: functional
[44] = tested on: Amaranthus retroflexus; assay: Post-emergence herbicidal activity against Amaranthus retroflexus assessed as growth inhibition at 1500 ai g/ha after 20 days by green house test; assay type: functional
[45] = tested on: Brassica rapa subsp. oleifera; assay: Post-emergence herbicidal activity against Brassica rapa subsp. oleifera Si Yue Man assessed as growth inhibition at 1500 ai g/ha after 20 days by green house test; assay type: functional
[46] = tested on: Medicago sativa; assay: Pre-emergence herbicidal activity against Medicago sativa (alfalfa) assessed as growth inhibition at 1500 ai g/ha after 20 days by green house test; assay type: functional
[47] = tested on: Amaranthus retroflexus; assay: Pre-emergence herbicidal activity against Amaranthus retroflexus assessed as growth inhibition at 1500 ai g/ha after 20 days by green house test; assay type: functional

| Structure (SMILES) | growth inhibition (GI) [1] [%] | growth inhibition (GI) [2] [%] | growth inhibition (GI) [4] [%] | growth inhibition (GI) [5] [%] | growth inhibition (GI) [7] [%] | growth inhibition (GI) [8] [%] | growth inhibition (GI) [9] [%] | growth inhibition (GI) [11] [%] | growth inhibition (GI) [12] [%] | growth inhibition (GI) [13] [%] | growth inhibition (GI) [14] [%] | growth inhibition (GI) [15] [%] | growth inhibition (GI) [16] [%] | growth inhibition (GI) [18] [%] | growth inhibition (GI) [19] [%] | growth inhibition (GI) [20] [%] | growth inhibition (GI) [21] [%] | growth inhibition (GI) [22] [%] | growth inhibition (GI) [23] [%] | growth inhibition (GI) [24] [%] | also measured |
| --- | --- | --- | --- | --- | --- | --- | --- | --- | --- | --- | --- | --- | --- | --- | --- | --- | --- | --- | --- | --- | --- |
| CCOP(=O)(OCC)C(C)OC(=O)COc1ccc(Cl)cc1Cl (configuration not stated) | 62.5 | 0 | 0 | 97.5 | 0 | 10 | 92.5 | 0 | 0 | 0 | 0 | 47.5 | 100 | 0 | 100 | 5.5 | 0 | 97.5 | 50 | 0 | growth inhibition (GI) [3]: 82.5%; growth inhibition (GI) [6]: 5%; inhibition at 480 h [10]: 37.5%; growth inhibition (GI) [17]: 97.5%; IC50 [25]: 23.1 µM; growth inhibition (GI) [26]: 0%; growth inhibition (GI) [27]: 52.5%; IC50 [28]: 0.3 µM; growth inhibition (GI) [29]: 0%; growth inhibition (GI) [30]: 0%; growth inhibition (GI) [31]: 82.5%; growth inhibition (GI) [32]: 52.5%; growth inhibition (GI) [33]: 100%; growth inhibition (GI) [34]: 0%; growth inhibition (GI) [35]: 0%; growth inhibition (GI) [36]: 0%; growth inhibition (GI) [37]: 97.5% |
| COP(=O)(OC)C(OC(=O)COc1ccc(Cl)cc1C)c1cccc([N+](=O)[O-])c1 (configuration not stated) | 52.5 | 0 | 10 | 90 | 0 | 0 | 82.5 | 0 | 0 | 0 | 0 | 0 | 100 | 0 | 100 | 0 | 0 | 100 | 0 | 0 | growth inhibition (GI) [38]: <=50%; growth inhibition (GI) [39]: 50%; growth inhibition (GI) [40]: 50%; growth inhibition (GI) [41]: 90%; growth inhibition (GI) [42]: 90%; growth inhibition (GI) [43]: 75%; growth inhibition (GI) [26]: 0%; growth inhibition (GI) [27]: 50%; growth inhibition (GI) [29]: 0%; growth inhibition (GI) [30]: 0%; growth inhibition (GI) [31]: 100%; growth inhibition (GI) [32]: 0%; growth inhibition (GI) [44]: 90%; growth inhibition (GI) [45]: 75%; growth inhibition (GI) [46]: 75%; growth inhibition (GI) [34]: 0%; growth inhibition (GI) [35]: 0%; growth inhibition (GI) [47]: 75%; growth inhibition (GI) [36]: 0%; growth inhibition (GI) [37]: 50% |
